Results reported in paper PMC5347165, “Killing of Staphylococcus aureus and Salmonella enteritidis and neutralization of lipopolysaccharide by 17-residue bovine lactoferricins: improved activity of Trp/Ala-containing molecules” (Scientific Reports, 2017).
Values joined by “and” are separate entries in the source; they are usually repeats but may differ in a detail not shown here. Equal values may be shown once. Read-outs that look alike come from different tables or passages of the source.

Tests used:
[1] = test system: Pseudomonas aeruginosa CICC10419; format: cell-based; details: microtiter broth dilution, 10^5 CFU/ml, 16‒18 h at 37 °C; representative of three independent experiments
Method: (§1) The MIC values of LfcinB17-33 derivatives against bacteria were determined by the microtiter broth dilution method. Briefly, 10 μl of serially diluted aliquots of peptides were added to each well of 96-well microtiter plates, followed by the addition of 90 μl exponential phase bacteria (10^5 CFU/ml) and incubated for 16‒18 h at 37 °C.

[2] = test system: Escherichia coli CVCC195; format: cell-based; details: microtiter broth dilution, 10^5 CFU/ml, 16‒18 h at 37 °C; representative of three independent experiments
Method: as §1

[3] = test system: Staphylococcus aureus ATCC43300; format: cell-based; details: microtiter broth dilution, 10^5 CFU/ml, 16‒18 h at 37 °C; representative of three independent experiments
Method: as §1

[4] = test system: S. choleraesuis CVCC503; format: cell-based; details: microtiter broth dilution, 10^5 CFU/ml, 16‒18 h at 37 °C; representative of three independent experiments
Method: as §1

[5] = test system: S. pullorum CVCC1789; format: cell-based; details: microtiter broth dilution, 10^5 CFU/ml, 16‒18 h at 37 °C; representative of three independent experiments
Method: as §1

[6] = test system: Streptococcus suis CVCC606; format: cell-based; details: microtiter broth dilution, 10^5 CFU/ml, 16‒18 h at 37 °C; representative of three independent experiments
Method: as §1

[7] = test system: S. pullorum CVCC1802; format: cell-based; details: microtiter broth dilution, 10^5 CFU/ml, 16‒18 h at 37 °C; representative of three independent experiments
Method: as §1

[8] = test system: Enterococcus faecium CMCC1.2136; format: cell-based; details: microtiter broth dilution, 10^5 CFU/ml, 16‒18 h at 37 °C; representative of three independent experiments
Method: as §1

[9] = test system: Salmonella typhimurium ATCC14028; format: cell-based; details: microtiter broth dilution, 10^5 CFU/ml, 16‒18 h at 37 °C; representative of three independent experiments
Method: as §1

[10] = test system: Bacillus subtilis ATCC6633; format: cell-based; details: microtiter broth dilution, 10^5 CFU/ml, 16‒18 h at 37 °C; representative of three independent experiments
Method: as §1

[11] = Calcein leakage from model membranes; details: at 5 min, POPC/POPG (1:3) LUVs, 0.1% Triton X-100 = total
Method: Large unilamellar vesicles (LUVs) composed of POPC/POPG (1:3) were used as a model anionic membrane. […] were dissolved in chloroform, dried under nitrogen gas and vacuum-dried for 2 h. The lipid film was rehydrated in 20 mM HEPES (150 mM NaCl, 1 mM EDTA, pH 7.4). To make calcein-encapsulated unilamellar liposomes, the lipid film was suspended in 5 mM sodium HEPES (containing 100 mM calcein, pH 7.5). The liposome suspensions were freeze-thawed in liquid nitrogen five times and extruded ten times through two stacked polycarbonate filters (100 nm pore size) in an Avanti Mini-Extruder. Untrapped calcein was removed using a Sephadex G-50 column (Amersham Pharmacia Biotech, Little Chalfont, UK). Peptides were then added to the LUVs. After a 10-min incubation at room temperature, the release of calcein form vesicles was monitored for 10 min on a Tecan Infinite M200 PRO plate reader (TECAN, Austria) with an excitation wavelength of 485 nm and an emission wavelength of 535 nm. The total calcein fluorescence (FT) was determined by the addition of 0.1% Triton X-100. Dye leakage was calculated according to the following equation: leakage rate (%) = ((F − F0)/(FT − F0)), where F0 indicates the fluorescence of each sample at T = 0.

[12] = test system: S. aureus ATCC25923; assay: Macromolecular synthesis, incorporation of radioactive precursors; format: cell-based, Staphylococcus aureus; details: 1 × MIC; 3H-glucosamine
Method: The effects of each peptide on the incorporation of L-[methyl-^3H] thymidine, [5-^3H] uridine, D-[6-^3H(N)] glucosamine hydrochloride, and L-[3,4,5-^3H] leucine into DNA, RNA, peptidoglycans, and proteins were investigated in S. aureus ATCC25923. […] Radioactive precursors of ^3H-thymidine, ^3H-uridine, ^3H-leucine, and ^3H-glucosamine (40 μCi/ml) were added to cultures to measure macromolecular synthesis and incubated for 20 min at 37 °C. Cold 25% trichloroacetic acid (TCA) was added to the mixture and placed on ice for 30 min. After centrifugation, pellets were washed twice with 25% TCA, dried and counted with scintillation fluid on a MicroBeta 1450 scintillation counter (Perkin Elmer)[46].

[13] = test system: S. aureus ATCC25923; format: cell-based, Staphylococcus aureus; details: microtiter broth dilution, 10^5 CFU/ml, 16‒18 h at 37 °C; representative of three independent experiments
Method: as §1

[14] = test system: S. aureus ATCC25923; assay: Inner membrane permeabilization, PI staining by flow cytometry; format: cell-based, Staphylococcus aureus; details: 1 × MIC, 37 °C, untreated 0.04%
Method: The permeabilization of the inner membrane was performed according to a previous report by Li et al. with slight modifications. […] Bacterial cells were then washed twice with PBS, fixed with 50 μg/ml PI and analyzed using a BD FACS Calibur Flow Cytometer (Franklin Lakes, New Jersey, USA). Data were analyzed using CellQuest Pro software (BD, USA).

[15] = test system: S. aureus ATCC25923; format: in vivo; details: for reduction of bacterial burden in thigh: 10 h after treatment
Method: The thigh infection protocol was performed as previously described. Female BALB/c mice (6 weeks old, 22 ± 2 g) were rendered neutropenic (neutrophils, 100/mm^3) by intraperitoneal injection with 150 and 100 mg cyclophosphamide per kg of body weight for 4 d and 1 d before infection, respectively. Mice were inoculated with 100 μl of S. aureus ATCC25923 cells (1.0 × 10^7 CFU/ml) and given a single dose (0.2 ml) of Lfcin4 or Lfcin5 (10 or 15 mg/kg of body weight) or vancomycin (10 mg/kg of body weight) by tail vein injection at 2 h post-infection. Mice were humanely euthanized by cervical dislocation at 5 and 10 h after treatment. Thighs were removed and homogenized in sterile PBS for a CFU assay for S. aureus ATCC25923.

[16] = test system: genomic DNA from S. enteritidis CVCC3377; assay: Gel retardation (EMSA) of genomic DNA; format: binding, Salmonella enteritidis; details: 0.7% agarose gel, 10 min 37 °C; ratios tested 0, 0.5, 1, 2.5, 5, 10 (w/w)
Method: Genomic DNA was extracted from S. aureus ATCC25923, E. coli O157 and S. enteritidis CVCC3377 using a TIANamp Bacteria DNA Kit (TIANGEN Biotech Co., Ltd., Beijing). The gel retardation experiment was performed by mixing the bacterial DNA with different concentrations of Lfcin4 or Lfcin5 in 20 μl binding buffer (10 mM Tris-HCl, pH 8.0, 5% glycerol, 1 mM dithiothreitol, 1 mM EDTA, 20 mM KCl, and 50 μg/ml bovine serum albumin)[41]. The ratios of peptide to DNA were 0, 0.5, 1, 2.5, 5.0, and 10.0 (w/w). The mixtures were incubated for 10 min at 37 °C and then subjected to electrophoresis on a 0.7% agarose gel.

[17] = test system: P. aeruginosa CICC21630; format: cell-based, Pseudomonas aeruginosa; details: microtiter broth dilution, 10^5 CFU/ml, 16‒18 h at 37 °C; representative of three independent experiments
Method: as §1

Sequence: FKAWRWAWRMKKLAAPS [Lfcin4, 17-residue LfcinB17-31 derivative, Trp/Ala-containing]
- MIC [1]: >58 μM and >128 μg/ml
- MIC [2]: 30 μM and 64 μg/ml
- MIC [3]: 29 μM and 64 μg/ml
- MIC [4]: 58 μM and 128 μg/ml
- MIC [5]: >58 μM and >128 μg/ml
- MIC [6]: 58 μM and 128 μg/ml
- MIC [7]: >58 μM and >128 μg/ml
- MIC [8]: 7.3 μM and 16 μg/ml
- MIC [9]: 58 μM and 128 μg/ml
- MIC [10]: 15 μM and 32 μg/ml
- dye (calcein) leakage from vesicles ([11]; 1× MIC): 45.5%
- dye (calcein) leakage from vesicles ([11]; 2× MIC): 90.6%
- dye (calcein) leakage from vesicles ([11]; 4× MIC): 98.4%
- label incorporation into peptidoglycans (in words) [12]: increased label incorporation into peptidoglycans
- MIC [13]: 3.66 μM and 8 μg/ml
- PI-positive cells ([14]; 30 min): 44.20%
- PI-positive cells ([14]; 120 min): 50.10%
- reduction of bacterial burden in thigh ([15]; 10 mg/kg single i.v. dose (Fig. 6A)): 0.03 log10 CFU/g
- reduction of bacterial burden in thigh ([15]; 15 mg/kg single i.v. dose (Fig. 6A)): 0.10 log10 CFU/g
- S. aureus cells killed ([15]; 10 h post-treatment, 15 mg/kg single i.v. dose): 20.5%
- greater reduction of viable bacteria in infected thighs compared to control mice ([15]; increasing doses from 10 to 15 mg/kg (discussion)): 0.85 log10 CFU/g of tissue
- peptide:DNA mass ratio at which migration of genomic DNA is impaired [16]: greater than 2.5 mass ratio (peptide:DNA)
- MIC [17]: >58 μM and >128 μg/ml
